# Values of other authors as cited in patent publication US8623418B2, “Pharmaceutical composition” (Alpharma Pharmaceuticals LLC, priority 2007, dated 2014).
# Conditions: in vivo
compound,measurement,value
O=C1CC[C@@]2(O)[C@H]3Cc4ccc(O)c5c4[C@@]2(CCN3CC2CC2)[C@H]1O5 [naltrexone],parent drug and metabolites excreted by the kidney,53-79 % of the dose
